Measurements: US11008286B2, “Amino mercaptan compound and preparation method therefor and use thereof in protection against radiation” (Institute of Radiation Medicine Chinese Academy of Medical …, priority 2016, dated 2021)
Values joined by “and” are separate entries in the source; they are usually repeats but may differ in a detail not shown here. Equal values may be shown once. Where a name gives a salt, the structure may show the parent alone. Read-outs that look alike come from different tables or passages of the source.

Columns and labels:
C57 male mice [1] = experiment: Example G: effect of stereoisomerism on survival rate of mice under 7.5Gy irradiation; assay type: in vivo; details: 200 mg/kg IP 30 min before irradiation
Description: Laboratory animals: C57 male mice, 19-21 g, purchased from Beijing HFK Bioscience Co. Ltd., license number SCXK (Beijing), 9 mice in each group.

C57 male mice [2] = experiment: Example E2: HE staining of small intestine on the 5th day after local abdominal irradiation; assay type: in vivo
Procedure: In amifostine group, intraperitoneal injection was performed 30 min before the local abdominal irradiation at 16Gy, wherein amifostine was dissolved in normal saline, 365 mpk.
In Example 4 group, intraperitoneal injection was performed 30 min before the local abdominal irradiation at 16Gy, wherein Example 4 was dissolved in normal saline, 517 mpk.
The mice were sacrificed on the 5th day after the irradiation, and the small intestine was taken and sectioned for HE staining.

C57 male mice [3] = experiment: Example D: protective effect on the hematopoietic system after 4Gy irradiation; assay type: in vivo; details: 800 mpk IP 30 min before 4Gy
Description: The mice were sacrificed on the 15th day after the irradiation, followed by blood collection. Femoral bone marrow cells, spleen and thymus were weighed, and cells were extracted for detecting the peripheral white blood cell (WBC) count, peripheral red blood cell (RBC) count, peripheral hemoglobin (HGB) concentration, peripheral platelet (PLT) count, peripheral blood lymphocyte ratio (LY %), and peripheral blood neutrophil ratio (NE %).
In addition, the number of leukocytes in bone marrow, ratio of hematopoietic stem cell (LSK) in bone marrow cells, ratio of hematopoietic progenitor cells (HPC) in bone marrow cells, ratio of CD34−LSK in bone marrow cells, and ratio of CD34+LSK in bone marrow cells were detected.
The effects of irradiation on LSK intracellular reactive oxygen species (ROS) level and HPC intracellular ROS level were also detected.

C57 male mice [4] = test system: C57 male mice;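 on survival rate compared with amifostine: mice aged 8-10 weeks, weighing 20-22 g, with deaths logged and survival rate computed on day 30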;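 on survival rates compared with amifostine: mice aged 8-10 weeks, weighing 20-22 g, with deaths logged and survival rate computed on day 30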
Procedure: Laboratory animals: C57 male mice, 8-10 weeks old, 20-22 g, were divided into 4 groups, 5 or 10 or 15 or 20 or 25 mice in each group.
Observation index: The death and weight of the mice were recorded, and the survival rate was calculated on the 30th day.

C57 male mice [5] = experiment: Example F: radiation pneumonia, HE staining of right lung on the 60th day after 17Gy X rays; assay type: in vivo
Procedure: Administration and grouping: Mice were intraperitoneally injected with normal saline, Example 4 (400 mpk), and amifostine (200 mpk) respectively 30 min before irradiation, and the right lungs were irradiated at 17Gy by X rays. The right lungs were taken on the 60th day for HE staining (n=3):
Two months after irradiation of the unilateral lung, the most important lung manifestation was radiation pneumonia. […] The alveolar structure of mice in the 17Gy group was changed, which was manifested as a large area of inflammatory infiltration of the lung (the blue dots were inflammatory cells), and the alveoli were filled with inflammatory cells.

C57 male mice [6] = assay type: in vivo; details: for Survival number/Test number: no irradiation, 30-day
Procedure: Administration and grouping: Each group was intraperitoneally injected with one corresponding dose of amifostine. • Each group was intraperitoneally injected with one corresponding dose of Example 17 (IP).
The 30-day survival rate of mice in each group was recorded.

[7] = cited from earlier work
[8] = 15th day, vs irradiation control
[9] = 6.8Gy, 200 mpk IP 30 min before irradiation, day 30

## CNC(=O)[C@H](CS)NC(=O)[C@H](CS)NC(=O)[C@H](CS)NC [Example 4, (R)-3-mercapto-N—((R)-3-mercapto-1-(((R)-3-mercapto-1-(methylamino)-1-oxopropan-2-yl)amino)-1-oxopropan-2-yl)-2-(methylamino) propanamide trifluoroacetate]
C57 male mice [1]
  Survival number/Test number: 5/9
  Survival rate: approximately 56%
C57 male mice [1]; 9 mice per group
  deaths: (4 deaths)
C57 male mice [2]; 517 mpk IP 30 min before local abdominal irradiation at 16Gy
  intestinal villi structure (HE staining): slight changes compared with the irradiation group
C57 male mice [3]; 15th day
  number of leukocytes (WBC) in bone marrow: increased by administration of Example 4 with significant difference
  ratio of hematopoietic progenitor cells (HPC) in bone marrow cells (HPC %): increased by administration of Example 4 with significant difference
  ratio of hematopoietic stem cell (LSK) in bone marrow cells (LSK %): increased by administration of Example 4 with significant difference
C57 male mice [3]; 15th day, irradiation decreased CD34+LSK %
  ratio of CD34+LSK in bone marrow cells: alleviated this abnormal differentiation with significant difference
C57 male mice [3]; 15th day, irradiation increased CD34−LSK %
  ratio of CD34−LSK in bone marrow cells: alleviated this abnormal differentiation with significant difference
C57 male mice [3]; 15th day, irradiation increased NE %
  peripheral blood neutrophil ratio (NE %): alleviated this abnormal differentiation with significant difference
C57 male mice [3]; 15th day, irradiation reduced LY %
  peripheral blood lymphocyte ratio (LY %): alleviated this abnormal differentiation with significant difference
C57 male mice [3]; [8]
  peripheral red blood cell (RBC) count: increased by administration of Example 4 with significant difference
  peripheral white blood cell (WBC) count: increased by administration of Example 4 with significant difference
C57 male mice [3]; bone marrow
  HPC intracellular ROS level: reduced the ROS levels with significant difference
  LSK intracellular reactive oxygen species (ROS) level: reduced the ROS levels with significant difference
C57 male mice [4]; 7.2Gy, 200 mpk IP, day 30
  Survival number/Test number: 20/25
  Survival rate: 80%
C57 male mice [4]; 7.5Gy, 517 mpk IP
  Survival number/Test number: 9/10
  Survival rate: 90%
C57 male mice [4]; 7.5Gy, 800 mpk IP
  Survival number/Test number: 7/10
  Survival rate: 70%
C57 male mice [4]; 10Gy, 365 mpk IP
  Survival number/Test number: 15/20
  Survival rate: 75%
C57 male mice [4]; 12.5Gy, 365 mpk IP
  Survival number/Test number: 4/10
  Survival rate: 40%
C57 male mice [4]; absorbed dose 6.8Gy and 7.2Gy
  survival rates compared with amifostine: survival rates comparable to those using amifostine
C57 male mice [4]; higher absorbed dose, as high as 12.5Gy
  survival rate compared with amifostine: a survival rate equivalent to those using amifostine
C57 male mice [5]; 400 mpk IP 30 min before 17Gy X rays to right lung
  inflammatory cell infiltration of lung / incidence of radiation pneumonia: partially relieve inflammatory cell infiltration and reduce the incidence of radiation pneumonia
C57 male mice [6]; 400 mpk IP
  Survival number/Test number: 10/10
C57 male mice [6]; 600 mpk IP
  Survival number/Test number: 5/5
C57 male mice [6]; 800 mpk IP
  Survival number/Test number: 10/10
C57 male mice [6]; 900 mpk IP
  Survival number/Test number: 10/10
C57 male mice [6]; 1000 mpk IP
  Survival number/Test number: 6/6 and 10/10
C57 male mice [6]; 1100 mpk IP
  Survival number/Test number: 8/10
C57 male mice [6]; 1200 mpk IP
  Survival number/Test number: 6/10
C57 male mice [6]; 1600 mpk IP
  Survival number/Test number: 3/10
C57 male mice [6]; male, C57, mouse, in vivo, 1000 mg/kg, 30 day
  Survival rate: 100%
C57 male mice [6]; mouse, in vivo
  safety compared with amifostine: as safe as or even better than amifostine

## NCCCNCCSP(=O)(O)O [Amifostine, amifostine, reference compound]
[7]
  half-life: 7 min
C57 male mice [2]; 365 mpk IP 30 min before local abdominal irradiation at 16Gy
  intestinal villi structure (HE staining): slight changes compared with the irradiation group
C57 male mice [4]; [9]
  Survival number/Test number: 5/5
  Survival rate: 100%
C57 male mice [4]; 7.2Gy, 200 mpk IP, day 30
  Survival number/Test number: 9/10 and 12/15 and 4/5 and 7/10 and 20/25
  Survival rate: 90% and 80% and 70%
C57 male mice [4]; 7.5Gy, 200 mpk IP, day 30
  Survival number/Test number: 5/5 and 4/5 and 1/10
C57 male mice [4]; 7.5Gy, 365 mpk IP
  Survival number/Test number: 10/10
  Survival rate: 100%
C57 male mice [4]; 10Gy, 517 mpk IP
  Survival number/Test number: 15/20
  Survival rate: 75%
C57 male mice [4]; 12.5Gy, 517 mpk IP
  Survival number/Test number: 5/10
  Survival rate: 50%
C57 male mice [5]; 200 mpk IP 30 min before 17Gy X rays to right lung
  inflammatory cell infiltration of lung / incidence of radiation pneumonia: partially relieve inflammatory cell infiltration and reduce the incidence of radiation pneumonia
C57 male mice [6]; 400 mpk IP
  Survival number/Test number: 5/5
C57 male mice [6]; 600 mpk IP
  Survival number/Test number: 5/5
C57 male mice [6]; 800 mpk IP
  Survival number/Test number: 3/5
C57 male mice [6]; 1600 mpk IP
  Survival number/Test number: 0/5
